{
  "source": "patent US10111896B2",
  "about": "“Composition comprising a combination of DNA methylation inhibitor and a vitamin D receptor agonist for the treatment of drug resistant cancer or for the prevention of tumor relapse” (INSERM (Institut National de la Sante et de la Recherche …, priority 2014, dated 2018)",
  "key": {"[1]": {"system": "VDR promoter", "experiment": "VDR promoter methylation analysis (methylation specific PCR) in primary AML samples", "type": "cell-based, human", "conditions": "5-AZA 1 μM, 96 hours, vs not treated", "protocol": "(§1) (A) Schematic representation of the VDR promoter. 5′-CpG-3′ islands present in VDR promoter (region ranging from −1035 to −75+ bp relative to the exon 1a transcriptional start codon) represented by dashes. […] Cell viability was evaluated by ATP assay. Results are presented as mean±SEM (ns not significant, *p<0.05, **p<0.01, ***p<0.001). […] HL60 were mock-treated or treated with 5-AZA (5 μM) or Vitamin D ([…]; as positive control) for 6 hours. (E) VDR or VDR-target genes (CAMP and CYP24A1) expression was evaluated by qPCR. Results are presented as mean±SEM. […] Primary cells (n=3 patients) were mock-treated or treated with 5-AZA (5 μM) or inecalcitol (INEC; […]) or both for 6 hours. VDR or VDR-target genes (CAMP and CYP24A1) expression was evaluated by qPCR. Results are presented as mean±SEM."}, "[2]": {"system": "VDR promoter", "experiment": "Methylation-sensitive high resolution melting (MS-HRM) analysis on THP-1 cells", "type": "cell-based, human", "conditions": "5-AZA 1 μM, 96 hours", "protocol": "as §1"}, "[3]": {"system": "wild-type MLL-ENL transformed cells", "experiment": "Cell viability by ATP assay, wild-type MLL-ENL transformed cells", "type": "cell-based, mouse", "conditions": "growing concentrations, 72 h", "protocol": "as §1\n(§2) Cells were seeded into 96-well plates, and then returned to the 37° C. incubator after the addition of different reactives or vehicle controls DMSO and ethanol if not otherwise stated. Celltiter Glo reagents (Promega) were added after 48 to 96 hours to determine cell viability by measuring ATP levels."}, "[4]": {"system": "VDR-/- MLL-ENL transformed cells", "experiment": "Cell viability by ATP assay, VDR-/- MLL-ENL transformed cells", "type": "cell-based, mouse", "conditions": "growing concentrations, 72 h", "protocol": "as §1, §2"}, "[5]": {"system": "VDR and VDR targeted genes (CAMP and CYP24A1) in HL60 cells", "conditions": "6 hours", "protocol": "as §1"}, "[6]": {"system": "VDR-target genes (CAMP and CYP24A1) in primary cells from AML patients", "experiment": "qPCR of VDR-target genes in leukemic cells from AML patients", "type": "cell-based, human", "conditions": "primary cells from AML patients (n=3); 5-AZA 5 μM, 6 hours", "protocol": "as §1"}, "[7]": {"system": "U937 cells", "experiment": "Myeloid differentiation, CD11b and CD14 expression by flow cytometry in AML cell lines", "type": "cell-based, human", "conditions": "5-AZA 5 μM, INEC 10 nM or both, 72 hours", "protocol": "(A) Structural formulas of 1-25 dihydroxyvitamin D3 (VD) and VDR agonist Inecalcitol. http://www.chemblink.com/products/163217-09-2.htm. (B-D) Hypomethylating agents synergize with VDR agonists to promote myeloid differentiation and VDR activity. (B) U937 cells were mock-treated or treated with 5-AZA (5 μM), INEC (10 nM) or both for 72 hours. CD11b and CD14 expression was evaluated by flow cytometry. Results are presented in fold increase compared to vehicle Histograms are mean±SEM (n≥10; *p<0.05, **p<0.01, ***p<0.001). (C) HL60 cells were mock-treated or treated with 5-AZA (5 μM), with Vitamin D (300 nM) or INEC (10 nM) for 16 hours. Granocyte differentiation genes (PRTN3 and NE) and monocyte differentiation genes (TREML2 and SERPINB8) were accessed by qPCR. Results are presented as mean±SEM. (D) U937 cells were mock-treated or treated with 5-AZA (5 μM), INEC (10 nM) or both for 16 hours. VDR activation was evaluated by immunoblot using anti-phospho-VDR specific antibodies. VDR antibodies were used to control protein loading. (E-G) Combined Hypomethylating agents/VDR agonists therapy impairs tumor growth. (E) HL60 cells were mock-treated or treated with 5-AZA (5 μM), with INEC (10 nM) or both for 16 hours. […] (F) Expression of cell cycle regulator genes p15, p21 and p27 was evaluated by qPCR. […] The p-value was determined using the log-rank test. […]"}, "[8]": {"system": "U937 cells xenograft", "experiment": "Subcutaneous U937 tumor xenograft in athymic Nude mice", "type": "in vivo, mouse", "conditions": "5-AZA 5 mg/kg i.p. five injections, INEC 20 μg per mice i.p. three times a week, vs control mice", "protocol": "(B) U937 cells were mock-treated or treated with 5-AZA (5 μM), INEC (10 nM) or both for 72 hours. CD11b and CD14 expression was evaluated by flow cytometry. […] (C) HL60 cells were mock-treated or treated with 5-AZA (5 μM), with Vitamin D (300 nM) or INEC (10 nM) for 16 hours. Granocyte differentiation genes (PRTN3 and NE) and monocyte differentiation genes (TREML2 and SERPINB8) were accessed by qPCR. Results are presented as mean±SEM. (D) U937 cells were mock-treated or treated with 5-AZA (5 μM), INEC (10 nM) or both for 16 hours. VDR activation was evaluated by immunoblot using anti-phospho-VDR specific antibodies. VDR antibodies were used to control protein loading. […] (E) HL60 cells were mock-treated or treated with 5-AZA (5 μM), with INEC (10 nM) or both for 16 hours. Cell cycle analyses were performed by topro-3 labeling. Results are presented as mean±SEM. […] (F) Expression of cell cycle regulator genes p15, p21 and p27 was evaluated by qPCR. Results are presented as mean±SEM. (G) Kaplan-Meier plot of survival of mice treated with vehicle (PBS), 5-Acytidine (5 mg/kg intraperitoneally three times a week for five injections) and or INEC (20 μg per mice intraperitoneally, three time a week) after subcutaneous xenograft with U937 cells (n=8 tumors in each group). The p-value was determined using the log-rank test.\nFor tumor establishment, U937 or OCI-AML3 cells as indicated were mixed with Matrigel (BD Biosciences) (1:1, vol/vol) and injected subcutaneously (5×106/flank) into 10-week old female athymic Nude mice (Janvier laboratories, France). The mice were then injected i.p. with 5-Azacytidine (Celgene) (5 mg/kg on day 5, 7, 9, 11 and 13), Inecalcitol (Hybrigenics) (20 μg/day 3 times a week), and the combination of 5-Azacytidine and Inecalcitol or PBS as a vehicle control. The tumor growth was measured as previously described (Lepelletier 2007)."}, "[9]": {"system": "AML cells", "experiment": "Dose-response studies of AML cells differentiation", "type": "cell-based", "conditions": "compared with VD"}, "[10]": {"system": "FLT3-ITD-transformed bone marrow hematopoietic progenitors", "experiment": "Methylcellulose colony-forming and replating assay of FLT3-ITD transformed cells", "type": "cell-based, mouse", "protocol": "(A) Inecalcitol decreases clonogenicity of FLT3-ITD of transformed cells. FLT3-ITD-transformed bone marrow hematopoietic progenitors were plated (30.000 cells/condition) in semisolid methylcellulose media containing cytokines (M-3434) containing or not INEC (10 nM) and scored following 7 to 10 days of culture. For re-plating assays 10-30.000 cells were plated (as indicated) in the presence or in the absence of INEC (10 nM) for each condition. Histograms represents numbers of colonies (mean±SEM of three independent experiments). Results are presented as mean±SEM of 4 independent experiments.\nColony formation by transformed or not mouse cells was examined with the use of Methocult medium (MethoCult GF M3434, StemCell Technologies). WT and VDR−/− cells infected were collected from BMT with oncogene or not and transferred to Methocult medium. Colonies were scored one week after plating for determination of the number of colonies. For serial plating cells were collected from methylcellulose, washed once in PBS, counted and replated in Methocult. For some experiments, 10 nM Inecalcitol (hybrigenics) was added to the culture medium.\nLIC are a subset of leukemic cells in the bulk leukemia population bearing resistance to chemotherapy and therefore at the origin of relapses. Next we explored the efficacy of VDR agonist therapy in targeting LIC cells. To test this hypothesis we transduced bone marrow precursors from wild-type and VDR−/− mice with the FLT3-ITD construct. Cells were plated in semi-solid cultures containing INEC or vehicle as a control (FIG. 6A). […] To further examine is the INEC effect was reversible we divided 2nd replating INEC-treated cultures in two groups containing INEC or a vehicle."}, "[11]": {"system": "FLT3-ITD/NPM1 AML blasts", "experiment": "In vitro treatment of FLT3-ITD/NPM1 AML blasts, myeloid differentiation markers", "type": "cell-based"}, "[12]": {"system": "FLT3-ITD/NPM1 AML blasts", "experiment": "Adoptive transfer of FLT3-ITD/NPM1 AML blasts and bone marrow cells in mice", "type": "in vivo, mouse", "text": "In agreement, biological as well as immunophenotypic markers of leukemia cells were normalized in INEC-treated animals (FIG. 6C)."}, "[13]": {"system": "β-catenin in OCI-AML3 cells", "experiment": "β-catenin expression by flow cytometry in OCI-AML3 cells", "type": "cell-based, human", "conditions": "INEC 10, 100 or 1000 nM, 48 hours"}},
  "data": [
    {"molecule": "Nc1ncn([C@@H]2O[C@H](CO)[C@@H](O)[C@H]2O)c(=O)n1", "note": "[5-AZA, 5-azacytidine]", "values": [
      {"measurement": "VDR promoter methylation", "setting": "[1]", "result": "decrease in methylation"},
      {"measurement": "VDR promoter methylation (MS-HRM)", "setting": "[2]", "result": "revert VDR promoter methylation"},
      {"measurement": "cell sensitivity (viability)", "setting": "[3]", "result": "sensitive"},
      {"measurement": "cell survival", "setting": "[4]", "result": "not altered"},
      {"measurement": "expression of VDR targeted genes (CAMP and CYP24A1)", "setting": "[5]; 5-AZA 5 μM or Vitamin D 1000 μM", "result": "induced the expression"},
      {"measurement": "VDR expression, fold increase", "setting": "[5]; 5-AZA 5 μM", "result": 2, "unit": "fold"},
      {"measurement": "VDR-target genes expression", "setting": "[6]", "result": "induces VDR-target genes expression"},
      {"measurement": "increase in myeloid differentiation (CD11b and CD14 expression), fold increase compared to vehicle", "setting": "[7]", "result": 1.3, "unit": "fold"},
      {"measurement": "survival of xenografted mice", "setting": "[8]", "result": "did not observe a significant effect"},
      {"measurement": "tumor size / tumor growth", "setting": "[8]", "result": "did not observe a significant effect"}
    ]},
    {"molecule": "C[C@H](CC#CC(C)(C)O)[C@H]1CC[C@@H]2/C(=C/C=C3C[C@@H](O)C[C@H](O)C3)CCC[C@@]21C", "note": "[INEC, 19-nor-14-epi-23-yne-1,25-(OH)2D3]", "values": [
      {"measurement": "increase in myeloid differentiation (CD11b and CD14 expression), fold increase compared to vehicle", "setting": "[7]", "result": 4.5, "unit": "fold"},
      {"measurement": "effectiveness to promote AML cells differentiation relative to VD", "setting": "[9]", "result": 1000, "unit": "fold"},
      {"measurement": "survival of xenografted mice", "setting": "[8]", "result": "did not observe a significant effect"},
      {"measurement": "tumor size / tumor growth", "setting": "[8]", "result": "did not observe a significant effect"},
      {"measurement": "CFC after INEC wash-out", "setting": "[10]; 2nd replating INEC-treated cultures switched to vehicle", "result": "reestablished CFC"},
      {"measurement": "decrease in clonogenic potential compared to vehicle-treated cells", "setting": "[10]; INEC 10 nM in methylcellulose, first plating", "result": 5, "unit": "fold"},
      {"measurement": "colonies at the 4th round of plating", "setting": "[10]; INEC 10 nM, serial replating", "result": "virtually no colonies"},
      {"measurement": "expression of myeloid differentiation markers", "setting": "[11]", "result": "increased expression"},
      {"measurement": "leukemia development after passive transfer of BM cells from treated animals", "setting": "[12]; in comparison to mock-treated animals", "result": "strongly delayed leukemia development"},
      {"measurement": "biological and immunophenotypic markers of leukemia cells in treated animals", "setting": "[12]; mouse, in vivo", "result": "normalized"},
      {"measurement": "leukemia development in mice adoptively transferred with treated cells", "setting": "[12]; mouse, in vivo", "result": "not able to develop leukemia"},
      {"measurement": "β-catenin pathway / expression", "setting": "[13]", "result": "inhibits β-cathenin pathway"}
    ]}
  ]
}
